The test system of series [1] is human hepatoma cell line ET (lub ubi neo/ET). The series is described as follows: Cytotoxicity (colorimetric cell number assay) in the ET line. Particulars: cytotoxicity versus antiviral activity. As to the method:
The compounds were dissolved in DMSO at five half-log concentrations each, ranging from either 0.03 to 3 μM or 1 to 100 μM. Subconfluent cultures of the ET line were plated out into 96 well plates dedicated for the analysis of cell numbers (cytotoxicity) or antiviral activity and the next day the compounds were added to the appropriate wells. […] Compound EC50 and EC90 values were derived from HCV RNA levels assessed as HCV RNA replicon derived LUC activity. Cytotoxicity was expressed as IC50 and IC90, the concentration of compound that inhibited cell viability by 50% and 90%, respectively. Compound IC50 and IC90 values were calculated using a colorimetric assay as an indication of cell numbers and cytotoxicity. The activity of the LUC reporter is directly proportional to HCV RNA levels in the human cell line. The HCV-replicon assay was validated in parallel experiments using interferon-alpha-2b as a positive control. Cyclosporine was also tested by way of comparison.

Series [2] concerns human T-lymphoblastoid cell line, CEM-SS. The series is described as follows: Compound toxicity (MTS) in CEM-SS cells. Type of series: cell-based. The method, then:
Certain compounds of the present invention were also tested for antiretroviral activity against human immunodeficiency virus-1 (HIV) using infection of the human T-lymphoblastoid cell line, CEM-SS, with the HIV strain […] (Weislow et al., 1989, J. Natl. Cancer Inst. 81:577-586). In this MTS cytoprotection assay, each experiment included cell control wells (cells only), virus control wells (cells plus virus), drug toxicity wells (cells plus drug only), drug calorimetric control wells (drug only) as well as experimental wells (drug plus cells plus virus). Compounds were first dissolved in DMSO and tested using six half-log dilutions, starting with a high concentration of either 20 or 2 μM. HIV-1RF was added to each well in a volume of 50 μL, the amount of virus determined to give approximately 90% cell killing at 6 days post-infection. At assay termination, assay plates were stained with the soluble tetrazolium-based dye MTS (CellTiter 96 Reagent, Promega) to determine cell viability and quantify compound toxicity. MTS is metabolized by the mitochondria enzymes of metabolically active cells to yield a soluble formazan product, providing a quantitative analysis of cell viability and compound cytotoxicity. The assay was validated in parallel experiments using Zidovudine (3′-azido-3′-deoxythymidine or AZT) as a positive control. […]

We go through two molecules from patent US7576057B2, “Cyclic peptides” (Scynexis, Inc., priority 2006, dated 2009).

With `C/C=C/C[C@@H](C)[C@@H](O)[C@H]1C(=O)N[C@@H](CC)C(=O)N(C)CC(=O)N(C)[C@@H](CC(C)C)C(=O)N[C@@H](C(C)C)C(=O)N(C)[C@@H](CC(C)C)C(=O)N[C@@H](C)C(=O)N[C@H](CCCCN(C)C)C(=O)N(C)[C@@H](CC(C)C)C(=O)N(C)[C@@H](CC(C)C)C(=O)N(C)[C@@H](C(C)C)C(=O)N1C` [Compound 1, [(N,N-ε-Dimethyl)-D-lysyl]^8cyclosporine], the “safety margin (antiviral IC50 versus cytotoxicity EC50)” value in series [1] is “exhibited a safety margin”. In addition, the “cytotoxicity at the concentrations that inhibit HIV” value in series [2] is on record as “not cytotoxic”.

On to `C/C=C/C[C@@H](C)[C@@H](O)[C@H]1C(=O)N[C@@H](CC)C(=O)N(C)CC(=O)N(C)[C@@H](CC(C)C)C(=O)N[C@@H](C(C)C)C(=O)N(C)[C@@H](CC(C)C)C(=O)N[C@@H](C)C(=O)N[C@H](CCCCN)C(=O)N(C)[C@@H](CC(C)C)C(=O)N(C)[C@@H](CC(C)C)C(=O)N(C)[C@@H](C(C)C)C(=O)N1C` [Compound 2, [D-Lysyl]^8cyclosporine], for which, in series [1], the “safety margin (antiviral IC50 versus cytotoxicity EC50)” value is reported as “exhibited a safety margin”.
